The values that follow come from US5470852A, “Tetrahydroprotoberberine quaternary ammonium compounds useful in for treating arrhythmia” (priority 1991, dated 1995).

Like-named read-outs stand apart in the source and are kept apart here.

Series [1] concerns Langendorff's perfused rat hearts. The experiment in a line: Lasting antiarrhythmic action after po administration, hearts removed and mounted on Langendorff's apparatus. It is filed as in vivo. The following applies: 10 mg/kg po at 1 hr before experiment (FIG. 4). The protocol: 1, 3 and 6 hours after the administration of 100 mg/kg of I13 by p.o. to rats, the hearts were removed and mounted onto Langendorff's apparatus. […] (see FIG. 4)
FIG. 4. Influence of po I13 and mexiletine on the time course of reperfusion-induced arrhythmias in Langendorff's perfused rat hearts

The subject of series [2] is cardiovascular activities / arrhythmia. The conditions noted are these: cited from earlier work; for cardiovascular activities: Fukuda H. et al.
For series [3], the system named is anaesthetized rats. The following applies: for Arrhythmic scores / Antiarrhythmic effect: X ± SD; for Incidence of VF: n=10; for Death / animals with VF / animals without VF: of n=10.
Series [4] deals with anaesthetized rats. The series is described as follows: animal or person. The following applies: Rattus norvegicus.
The test system of the next series is dogs. The series is described as follows: Ouabain-induced arrhythmia in dogs. In kind it is in vivo, dog. The following applies: for Incidence of arrhythmia: I13 iv 3 mg/kg, lidocaine iv 12 mg/kg.
The test system of a further series is rabbits. The experiment in a line: Electrically-induced ventricular fibrillation threshold (VFT) in rabbits. In kind it is in vivo, rabbit.

Method for dogs: (iv, 12 mg/kg) on ouabain induced arrhythmia in dogs
(Ouabain administration for 30 min)

Consider `Cc1cccc(C)c1OCC(C)N` (stereo not shown) [mexiletine, reference compound], for which, in series [1], the ke amounted to 0.075.
In the case of `O=C(NCC1CCCCN1)c1cc(OCC(F)(F)F)ccc1OCC(F)(F)F` (stereo not shown) [Flecainide], in series [2], the side effects result was “marked side effects of pulmonary fibrosis and thyroid function change”. The effect upon arrhythmia result in series [2] (clinical use) is on record as “good effect upon arrhythmia”.
With `COc1ccc2cc3[n+](cc2c1O)CCc1cc2c(cc1-3)OCO2` [berberubine], the cardiovascular activities entry in series [2] is listed as “highly potent cardiovascular activities”.
In general, ED50 refers to the dose that gives a 50% effect, or the effect in half of the subjects. High values mean a need for a large dose, low ones an effect at a small dose. As to `CCCNCC(O)COc1ccccc1C(=O)CCc1ccccc1` (stereo not shown) [propafenon, reference compound], in the series with anaesthetized rats [3] (po 10 mg/kg), the Arrhythmic scores was 2.6 ± 1.6, the “Incidence of VF” value turned out to be 20%, the Death was found to be 2 and the “animals with VF” value was found to be 1. In addition, the “animals without VF” value in the series on anaesthetized rats [3] (po 10 mg/kg) turned out to be 7. In the series on anaesthetized rats [3] (po 30 mg/kg), the Arrhythmic scores is given as 1.8 ± 1.6, the “Incidence of VF” value is 0%, the Death stood at 0 and the “animals with VF” value is reported as 0. The “animals without VF” value in the series with anaesthetized rats [3] (po 30 mg/kg) was found to be 10. The ED50 in the series with anaesthetized rats [4] (po) is 19.3 mg/kg.
On to `COc1cc2c(cc1OC)-c1cc3ccc(OC)c(OC)c3c[n+]1CC2` [palmatine], for which the cardiovascular activities result in series [2] is listed as “highly potent cardiovascular activities”.
As for `COc1ccc2cc3[n+](cc2c1OC)CCc1cc2c(cc1-3)OCO2` [berberine], the cardiovascular activities result in series [2] is listed as “highly potent cardiovascular activities”.
With `CCN(CC)CC(=O)Nc1c(C)cccc1C` [Lidocaine, reference compound], the Incidence of arrhythmia in the series with dogs (0 min (before administration)) was determined as 97 ± 8%; in the series with dogs (5 min), 83 ± 41%; in the series on dogs (10 min) it was 74 ± 42%; with dogs (15 min), 55 ± 46%; with dogs (20 min) it was 42 ± 45%; in the series with dogs (25 min), 16 ± 24%. Also, the Incidence of arrhythmia with dogs (30 min) stood at 10 ± 17%; in the series on dogs (35 min), 8 ± 10%; with dogs (40 min) it was 28 ± 25%; in the series on dogs (45 min) it was 10 ± 14%; with dogs (50 min), 8 ± 15%; with dogs (60 min), 10 ± 21%. The reoccurrence of arrhythmia result in the series with dogs (within 4 hour period) was “reoccurrences of VPBs, VT and VF have been detected”. Besides, in the series on rabbits (baseline, iv 15 mg/kg group), the “VFT Before” value is on record as 5.6 ± 0.9 volt. The “VFT After” value with rabbits (iv 15 mg/kg) stood at 8.8 ± 1.6 volt. In the series with rabbits (iv 15 mg/kg), this compound came in with a ΔVFT of 3.3 ± 0.9 volt. The Arrhythmic scores worked out at 5.3 ± 0.8 in the series with anaesthetized rats [3] (iv 1.0 mg/kg) and 1.7 ± 1.8 with anaesthetized rats [3] (iv 3.0 mg/kg). The Antiarrhythmic effect is reported as 1.0 ± 1.4 in the series with anaesthetized rats [3] (iv 1.0 mg/kg, coronary occlusion 5 min); 0.38 ± 0.23 in the series with anaesthetized rats [3] (iv 1.0 mg/kg, coronary occlusion 10 min); 3.6 ± 1.3 with anaesthetized rats [3] (iv 1.0 mg/kg, reperfusion 0.17 min); 4.4 ± 1.5 with anaesthetized rats [3] (iv 1.0 mg/kg, reperfusion 0.33 min); 5.3 ± 0.9 in the series on anaesthetized rats [3] (iv 1.0 mg/kg, reperfusion 0.5 min); 2.1 ± 1.7 in the series with anaesthetized rats [3] (iv 1.0 mg/kg, reperfusion 1 min). Besides, the Antiarrhythmic effect in the series on anaesthetized rats [3] (iv 1.0 mg/kg, reperfusion 2 min) is listed as 1.3 ± 1.0; in the series on anaesthetized rats [3] (iv 1.0 mg/kg, reperfusion 3 min), 0.6 ± 1.0; in the series on anaesthetized rats [3] (iv 1.0 mg/kg, reperfusion 5 min), 0.2 ± 0.4; in the series on anaesthetized rats [3] (iv 1.0 mg/kg, reperfusion 6 min), 0.2 ± 0.4; with anaesthetized rats [3] (iv 1.0 mg/kg, reperfusion 7 min), 0.2 ± 0.4; with anaesthetized rats [3] (iv 1.0 mg/kg, reperfusion 10 min) it was 0.2 ± 0.4. The Antiarrhythmic effect in the series on anaesthetized rats [3] (iv 1.0 mg/kg, reperfusion 15 min) stood at 0.06 ± 0.2; in the series on anaesthetized rats [3] (iv 1.0 mg/kg, reperfusion 25 min), 0; with anaesthetized rats [3] (iv 3.0 mg/kg, coronary occlusion 5 min), 0.2 ± 0.3; in the series with anaesthetized rats [3] (iv 3.0 mg/kg, coronary occlusion 10 min), 0.5 ± 0.6; in the series with anaesthetized rats [3] (iv 3.0 mg/kg, reperfusion 0.17 min), 1.2 ± 1.4; in the series with anaesthetized rats [3] (iv 3.0 mg/kg, reperfusion 0.33 min) it was 1.7 ± 1.8. The Antiarrhythmic effect in the series on anaesthetized rats [3] (iv 3.0 mg/kg, reperfusion 0.5 min) amounted to 1.1 ± 1.4; in the series with anaesthetized rats [3] (iv 3.0 mg/kg, reperfusion 1 min), 0.8 ± 1.3; in the series with anaesthetized rats [3] (iv 3.0 mg/kg, reperfusion 2 min), 0.4 ± 1.0; in the series with anaesthetized rats [3] (iv 3.0 mg/kg, reperfusion 3 min), 0.3 ± 0.5; in the series with anaesthetized rats [3] (iv 3.0 mg/kg, reperfusion 5 min), 0.4 ± 0.7; with anaesthetized rats [3] (iv 3.0 mg/kg, reperfusion 6 min), 0.3 ± 0.7. In addition, the Antiarrhythmic effect is given as 0.2 ± 0.4 with anaesthetized rats [3] (iv 3.0 mg/kg, reperfusion 7 min); 0.2 ± 0.3 in the series on anaesthetized rats [3] (iv 3.0 mg/kg, reperfusion 10 min); 0.1 ± 0.3 with anaesthetized rats [3] (iv 3.0 mg/kg, reperfusion 15 min); 0.1 ± 0.3 in the series on anaesthetized rats [3] (iv 3.0 mg/kg, reperfusion 25 min); 0.5 ± 0.5 in the series with anaesthetized rats [3] (po 10 mg/kg, coronary occlusion 5 min); 0.40 ± 0.22 with anaesthetized rats [3] (po 10 mg/kg, coronary occlusion 10 min). The Antiarrhythmic effect in the series with anaesthetized rats [3] (po 10 mg/kg, reperfusion 0.17 min) is reported as 2.6 ± 1.6; with anaesthetized rats [3] (po 10 mg/kg, reperfusion 0.33 min), 2.6 ± 1.8; with anaesthetized rats [3] (po 10 mg/kg, reperfusion 0.5 min), 2.5 ± 2.3; in the series with anaesthetized rats [3] (po 10 mg/kg, reperfusion 1 min) it was 2.2 ± 1.9; in the series with anaesthetized rats [3] (po 10 mg/kg, reperfusion 1.5 min), 2.4 ± 2.2; with anaesthetized rats [3] (po 10 mg/kg, reperfusion 3 min), 1.5 ± 2.5. Further, the Antiarrhythmic effect in the series on anaesthetized rats [3] (po 10 mg/kg, reperfusion 4 min) came to 1.1 ± 1.9; with anaesthetized rats [3] (po 10 mg/kg, reperfusion 5 min), 1.0 ± 1.9; in the series on anaesthetized rats [3] (po 10 mg/kg, reperfusion 6 min) it was 0.8 ± 1.6; with anaesthetized rats [3] (po 10 mg/kg, reperfusion 7 min) it was 1.3 ± 2.5; in the series on anaesthetized rats [3] (po 10 mg/kg, reperfusion 15 min), 1.4 ± 2.9; in the series on anaesthetized rats [3] (po 10 mg/kg, reperfusion 25 min), 1.4 ± 2.9. Further, the Antiarrhythmic effect came to 0.9 ± 0.7 in the series with anaesthetized rats [3] (po 30 mg/kg, coronary occlusion 5 min); 1.0 ± 0.9 in the series with anaesthetized rats [3] (po 30 mg/kg, coronary occlusion 10 min); 1.7 ± 1.5 in the series with anaesthetized rats [3] (po 30 mg/kg, reperfusion 0.17 min); 1.8 ± 1.6 with anaesthetized rats [3] (po 30 mg/kg, reperfusion 0.33 min); 1.0 ± 1.0 with anaesthetized rats [3] (po 30 mg/kg, reperfusion 0.5 min); 0.6 ± 0.9 in the series on anaesthetized rats [3] (po 30 mg/kg, reperfusion 1 min). Moreover, the Antiarrhythmic effect in the series on anaesthetized rats [3] (po 30 mg/kg, reperfusion 1.5 min) came out at 0.5 ± 0.6; in the series on anaesthetized rats [3] (po 30 mg/kg, reperfusion 3 min), 0.2 ± 0.2; in the series with anaesthetized rats [3] (po 30 mg/kg, reperfusion 4 min), 0.2 ± 0.2; in the series on anaesthetized rats [3] (po 30 mg/kg, reperfusion 5 min), 0.2 ± 0.2; in the series on anaesthetized rats [3] (po 30 mg/kg, reperfusion 6 min), 0.2 ± 0.3; with anaesthetized rats [3] (po 30 mg/kg, reperfusion 7 min) it was 0.2 ± 0.3. Also, the Antiarrhythmic effect in the series with anaesthetized rats [3] (po 30 mg/kg, reperfusion 15 min) was found to be 0.3 ± 0.3; in the series on anaesthetized rats [3] (po 30 mg/kg, reperfusion 25 min), 0.2 ± 0.3. The entries for the “Incidence of VF” value in the series on anaesthetized rats [3] (iv 1.0 mg/kg) and in the series on anaesthetized rats [3] (iv 3.0 mg/kg) were 50% and 0%, respectively. For the same compound, the Death in the series on anaesthetized rats [3] (iv 1.0 mg/kg) and in the series with anaesthetized rats [3] (iv 3.0 mg/kg) was 0 in each case. For the same compound, the “animals with VF” value in the series on anaesthetized rats [3] (iv 1.0 mg/kg) amounted to 3; with anaesthetized rats [3] (iv 3.0 mg/kg), 0. The results for the “animals without VF” value with anaesthetized rats [3] (iv 1.0 mg/kg) and with anaesthetized rats [3] (iv 3.0 mg/kg) were 7 and 10, respectively. The oral administration result in series [2] (clinical use) is on record as “can not be administered orally”. Further, the “prevention of ventricular fibrillation” value in series [2] (clinical use) is recorded as “can not effectively prevent ventricular fibrillation”. Further, the suppression of arrhythmia entry in series [2] (clinical use) is on record as “can effectively suppress arrhythmia”. The ED50 with anaesthetized rats [4] (iv) came out at 2.23 mg/kg.
